pIC50: −log10 of the molar value. In the oligonucleotide strings, read from the 5' end, every base follows the letter of its sugar. An asterisk marks phosphorothioate; unmarked linkages are phosphodiester. Other units and linkages are bracketed, terminal groups are in braces. A string of capitals states the bases alone. e = 2'-O-(2-methoxyethyl) (MOE); [5mC] = 5-methylcytosine
Legend:
LN229 cells [1] = experiment: orthotopic LN229 glioblastoma model, RG5461 and RG5658 alone or with TMZ, survival; assay type: in vivo; details: single intratumoral dose Day 21 (20 ug RG5658, 50 ug RG5461), TMZ daily Days 35-41, nude mice
Method: RG5658 and RG5461 were tested in an orthotopic model of GBM established with LN229 cells. Treatments comprised anti-miR-10b compound alone or in combination with TMZ.
Further testing was performed to evaluate the effects of RG5658 and RG5461 treatment in combination with TMZ. Human gliomablastoma-derived LN229 cells growing in culture were trypsinzed, counted, and resuspended PBS. The cells express a fluorescent marker that enables monitoring of tumor growth and size during treatment. Approximately 5×10^5 cells, in a volume of 5 ul, were injected into the brain of nude mice on Day 0. Mice were randomized into the following treatment groups, with 8 mice per group: (1) PBS; (2) RG5461; (3) RG5658; (4) RG5461+TMZ; (5) RG5658+TMZ; and (6) PBS+TMZ. On Day 21, a single dose of anti-miR-10b compound was administered intratumorally at a dose of 20 ug for RG5658 or 50 ug for RG5461. TMZ was administered daily on each of Days 35-41. Survival was monitored, and overall median survival was determined.

LN229 cells [2] = experiment: orthotopic LN229 glioblastoma model, RG5579 alone or with TMZ, survival; assay type: in vivo; details: intratumoral 40 ug RG5579 Day 21, TMZ daily Days 35-41, nude mice
Method: RG5579 was tested in an orthotopic model of GBM established with LN229 cells.
Human gliomablastoma-derived LN229 cells growing in culture were trypsinized, counted, and resuspended PBS. The cells express a fluorescent marker that enables monitoring of tumor growth and size during treatment. Approximately 5×10^5 cells, in a volume of 5 ul, were injected into the brain of nude mice on Day 0. Mice were randomized into the following treatment groups, with 8 mice per group: (1) PBS; (2) RG5579; (3) PBS+TMZ; and (4) RG5579+TMZ. On Day 21, mice were given an intratumoral injection of either PBS or 40 ug of RG5579. On Days 35-41, TMZ was administered daily. Survival was monitored, and overall median survival was determined.

miR-10b [3] = experiment: PD signature (mRNA of direct miR-10b target genes) in LN229 cells; assay type: cell-based, human
Method: To evaluate the on-target pharmacodynamic effects of treatment with anti-miR-10b, 18 genes that are direct targets of miR-10b were identified by next generation sequencing, and the expression of each of these genes following anti-miR-10b treatment was measured. The 18 genes were: ATXN2, ATXN7, BCL6, BDNF, CRLF3, DAZAP1, DVL3, FXR2, GATAD2A, GCLM, GTF2H1, INO80D, MIEF1, NCOA6, NFE2L1, PDE4A, SMAD2, and TET2.
LN229 cells were treated with a concentration of RG5579 ranging from 2 to 500 nM. After 24 hours, RNA was isolated and the mRNA levels of the 18 genes targeted were measured and averaged to provide a pharmacodynamic signature score (PD Signature Score), represented as Log 2 fold-change (Log 2FC) relative to mock-transfection.
Similar studies were conducted with RG5461 and RG5658, using a PD signature of 10 genes (non-overlapping with the 18-gene PD signature above).

LN229 cells [4] = experiment: cell viability assay (CellTiter-Glo), LN229 cells; assay type: cell-based, human; details: RNAiMAX transfection, 72 hours
Method: (§1) For the cell viability assay, approximately 8,000 cells were plated into each well of a 96-well plate. The following day, cells were transfected with anti-miR-10b compound at doses of 2, 4, 8, 16, 31, 63, 125, 250, and 500 nM, using RNAiMAX™ as the transfection reagent. After 72 hours, cell viability was determined using the CellTiter-Glo® Luminescent Cell Viability Assay. An IC50 was calculated for each compound. The assay was performed using both LN229, U87, MCF7, and HCN2 cells.

miR-10b [5] = experiment: luciferase reporter assay for miR-10b in stable Hela cell line; assay type: cell-based; details: Hela reporter cells transfected with miR-10b; for Luciferase (avg fold change) 1 nM: 1 nM anti-miR-10b compound; for Luciferase (avg fold change) 10 nM: 10 nM anti-miR-10b compound; for Luciferase (avg fold change) 100 nM: 100 nM anti-miR-10b compound
Method: In vitro potency was evaluated using a luciferase reporter assay. A luciferase reporter plasmid for miR-10b was designed, with a fully complementary miR-10b binding site in the 3′-UTR of the luciferase gene. A stable Hela cell line expressing this luciferase construct was generated. Cells were transfected to introduce miR-10b, which represses the expression of luciferase from the reporter construct. […] Cells were treated with anti-miR-10b compound at concentrations of 1 nM, 10 nM, and 100 nM. […] As shorter compounds, such as 9-mers, are typically not maximally active in the same assay conditions used for longer compounds, shorter compounds were selected based on maximum inhibition relative to appropriate control compounds. In this way, compounds that are diverse in both length and chemical composition were included in further testing.

LN229 cells [6] = experiment: LN229 Orthotopic Model, summary of in vivo studies (Table 7); parameters: species or system nude mice; details: for survival benefit: Intratumoral anti-miR-10b alone, cell reads 'No survival benefit' over three lines
Method: (§2) Human gliomablastoma-derived cells growing in culture are trypsinzed, counted, and resuspended PBS. The cells express a fluorescent marker and luciferase insertion that enables monitoring of tumor growth and size via an in vivo imaging system. Approximately 5×10^5 cells, in a volume of 5 ul, are injected into the brain of nude mice. Following intracranial tumor implantation, tumor burden is measured using the IVIS Spectrum In Vivo Imaging System (PerkinElmer), and mice are randomized into treatment groups. Intratumoral (e.g., 0.1-500 ug/tumor), subcutaneous (e.g., 100 mg/kg) or intravenous (e.g., 80 mg/kg) dosing of anti-miR-10b compound begins post-implantation. Tumor burden is measured weekly using the imaging system. Final tumor size and weight are measured at the end of the study.
Three candidate therapeutic agents, RG5579, RG5461, and RG5658 were tested in the subcutaneous and orthotopic glioma models. […] The studies were designed to evaluate subcutaneous administration vs. intratumoral administration in subcutaneous in orthotopic models; efficacy of the anti-miR-10b compound alone and in combination with TMZ; and efficacy of a single injection of anti-miR-10b compound vs multiple injections. The research tool compound RG384124 was also tested.
The results of the in vivo studies are summarized in Table 7 and illustrate the substantial improvement of overall survival following treatment with both anti-miR-10b compound and TMZ. RG5461 and RG5658 improved overall median survival in combination with TMZ treatment.

MCF7 cells = experiment: cell viability assay (CellTiter-Glo), MCF7 cells; assay type: cell-based; details: RNAiMAX transfection, 72 hours
Method: as §1

[7] = tested on: Human gliomablastoma-derived cells; experiment: initial testing in subcutaneous and orthotopic glioma models, single intratumoral dose; assay type: in vivo, nude mice; details: single dose administered intratumorally
Method: Human gliomablastoma-derived cells growing in culture are trypsinzed, counted, and resuspended in a 1:1 mixture of media:growth factor reduced Matrigel. Approximately 10^6 cells, in a volume of 100 ul, are injected subcutaneously into the flank of nude mice. Ten days following subcutaneous tumor implantation, tumor size is measured using calipers, and mice are randomized into treatment groups. Intratumoral (e.g., 5 ug/30 mm^3 tumor), subcutaneous (e.g., 100 mg/kg) or intravenous (e.g., 80 mg/kg) dosing of anti-miR-10b compound begins post-implantation. Tumor size is measured three to five days per week. Final tumor size and weight are measured at the end of the study.
as §2, with “Intratumoral (e.g., 0.1-500 ug/tumor), subcutaneous (e.g., 100 mg/kg) or intravenous (e.g., 80 mg/kg) dosing of anti-miR-10b compound begins post-implantation.” left out

U87 cells = experiment: cell viability assay (CellTiter-Glo), U87 cells; assay type: cell-based; details: RNAiMAX transfection, 72 hours
Method: as §1

HCN2 cells = experiment: cell viability assay (CellTiter-Glo), HCN2 cells; assay type: cell-based; details: RNAiMAX transfection, 72 hours
Method: as §1

Molecule	% increase (relative to PBS) of median survival (LN229 cells [1])	Median Survival (LN229 cells [1])	Median Overall Survival % increase (relative to PBS) (LN229 cells [2])	Median Overall Survival Days (LN229 cells [2])	10-gene PD signature (miR-10b [3])	pIC50 (LN229 cells [4])	Luciferase (avg fold change) 1 nM (miR-10b [5])	Luciferase (avg fold change) 10 nM (miR-10b [5])	Luciferase (avg fold change) 100 nM (miR-10b [5])	median survival increase (LN229 cells [6]; Intratumoral anti-miR-10b + TMZ)	survival benefit (LN229 cells [6])	pIC50 (MCF7 cells)	overall survival [7]	tumor growth [7]	pIC50 (U87 cells)	pIC50 (HCN2 cells)
Cn1nnc2c(C(N)=O)ncn2c1=O [TMZ, temozolomide]	22%	67.5 days	27%	61.5 days	–	–	–	–	–	–	–	–	–	–	–	–
UKAKCMAFGFGFGMUKAK (CAAATUCGGTTCTACAGGGTA; LNA/2'-F/2'-OMe modifications, chemistry not fully specified) [RG5658, anti-miR-10b modified oligonucleotide, 9 linked nucleosides]	–	56 days	–	–	dose-dependent de-repression of a 10-gene PD signature	7.05	1.8 fold change	3.7 fold change	4.7 fold change	71%	No	6.03	did not significantly improve overall survival	consistently delayed tumor growth	7.34	–
5′-CACAAATTCGGTTCTACAGGGTA-3′ (antisense e[5mC]*eA*e[5mC]*eA*eA*eA*eT*eT*e[5mC]*eG*eG*eT*eT*e[5mC]*eT*eA*e[5mC]*eA*eG*eG*eG*eT*eA) [RG384124, research tool compound; each nucleoside 2′-O-methoxyethyl, each C 5-methylcytosine, each linkage phosphorothioate]	–	–	–	–	–	7.37	2.8 fold change	29.5 fold change	55.6 fold change	–	No	7.09	–	–	7.50	7.35

Reference: patent US20220096517A1, “MicroRNA Compounds and Methods for Modulating MIR-10B Activity” (Regulus Therapeutics Inc., priority 2018, published 2022)
